Assay results: patent US20060270841A1, “Assays to monitor amyloid precursor protein processing” (priority 2002, published 2006)

Experiments:
Assay type in all cases: cell-based
[1] = test system: APP processing; assay: APP-TAT-APPct32 fusion protein with LTR β-galactosidase reporter in P4-R5 HeLa cells (Example 8); settings: 10 μM inhibitor
Description: P4-R5 cells are HeLa cells that contain a stably integrated β-galactosidase reporter gene under the control of the HIV1 LTR.
1.) Cell count on P4-R5 cells=7.6×10^5 cells per ml in cDMEM (−)PR. Seeded sterile white luminometer TC plates with the following cell numbers:
• 5×10^3/well=0.75 ml in 9.25 ml media • 1.0×10^4/well=1.5 ml in 8.5 ml media • Seeded 100 μL cells per well. • Incubate overnight at 37° C., 5% CO2. Day 2
2.) Made up media with appropriate dilutions of inhibitors. • On no-inhibitor controls, added 100 μL of cDMEM with 1% DMSO • On wells with Compound X, added 10 μM inhibitor in cDMEM • On wells with L-875,532, added 10 μM inhibitor in cDMEM
3.) Prior to transfection, pulled off media on P4-R5 cells and replaced with media −/+inhibitor. • FUGENE® transfection: • For FUGENE® transfection:
4.) Added 600 μL of OPTIMEM® to sterile EPPENDORF® tube and carefully added 30 μL FUGENE® to media, without touching walls of tube. Incubated at room temperature for 5 minutes. • In separate EPPENDORF® tubes, added each DNA. • Added FUGENE®/OPTIMEM® dropwise to DNA; incubated at room temperature for 15 minutes.
Added 15 μL/well of DNA/FUGENE®/OPTIMEM® dropwise to media in appropriate wells on P4-R5 cells, swirling to mix. […]
6. Read immediately in luminometer using standard file. Filled in required fields, read plate.

[2] = test system: APP processing; assay: APP/TAT fusion protein with LTR-GFP reporter in H4 cells, FLUOstar reading (Example 3); settings: for Fluor Units: approximately 48 hours, 485 excitation/538 emission
Description: 1. H4 cells (ATCC HTB-148) were transfected with the various constructs listed below using 6 μL Fugene per 100 μL Optimem and 100 μL Optimem per well (6-well dishes). Transfection reactions were incubated for 30 minutes prior to adding 100 μL dropwise onto wells.
Transfections were done as follows:
1. 1 μg pMM321 (FIG. 25A-D) and 1 μg pcDNA3.1 backbone
1a. 1 μg pMM321 and 1 μg pcDNA3.1 (Invitrogen, San Diego, Calif.) backbone. Prior to transfection, 10 μM L-875,532 (γ-secretase inhibitor) was added to the well.
2. 1 μg pMM321 and 1 μg pRBR186 (FIG. 22A; APP expression vector; processing and inhibition of processing control)
2a. 1 μg pMM321 and 1 μg pRBR186. Prior to transfection, 10 μM L-875,532 was added to cells (transfection solution for 3-5 were prepared in bulk)
4. and 4a. 1 μg pMM321 and 1 μg pcDNA3.1 zeo (+) APP(1-651)SW, K612V-(M1L)TATexonI. Prior to transfection, 10 μM L-875,532 was added to the two wells.
5. and 5a. 1 μg pMM321 and 1 μg pcDNA3.1 zeo (+) APP(1-651)SW, K612V-(M1L)TATexonI. Prior to transfection, 10 μM Compound X was added to the two wells
7. 1 μg pMM321 and 1 μg pUCd5 TAT. Prior to transfection, 10 μM L-875,532 was added to the cells.
Cells were assessed by eye under a fluorescence microscope the morning following transfection (˜20 hrs).
At approximately 48 hours, cells were trypsinized, spun down, and resuspended in 100 μL PBS. The cellular contents of each well of the transfection plates were placed into one well of a 96-well fluorescence plate. Fluorescence was analyzed using the FLUOstar (485 excitation/538 emission).

[3] = test system: Aβ; assay: Production of Aβ in conditioned media of transfected 293T and H4 cells; settings: 10 μM L-685,458, 1 mL conditioned media
Description: 1 mL of conditioned media from each well was analyzed for production of Aβ.

[4] = test system: APP processing; assay: APP/TAT fusion protein with LTR-EGFP reporter (pMM321), transient transfection in H4 cells (Example 2); settings: for fluorometer reading: 10 uM 458, 100,000 cells
Description: (§1) “pcDNA3.1 zeo (+) APP(1-651)SW, K612V-(M1L)TATexonI,” “pMM321,” and “pUCd5TAT” are the same as in Example 1. H4 cells (ATCC HTB-148) are a neuronal cell line.
(§2) • Day 1: Plated out 2×6 well plates of HEK293T cells and 2×6 well plates of H4 cells at 1×10^5 cells/well. • Day 2: Transfected cells with 2 μg total DNA—pcDNA3.1 zeo (+) APP(1-651)SW, K612V-(M1L)TATexonI and carrier (a pET-IN plasmid). Plate 1:
(§3) 3,4: 0.1 μg pMM321+0.1 μg pcDNA3.1 zeo (+) APP(1-651)SW, K612V-(M1L)TATexonI+1.8 μg carrier (added too 0.5×carrier to this mix in 293T cells)
Transfections for H4 cells: 6 μL Fugene/well. Combined with DNA in Optimem and incubated and added to cells according to manufacturer's instructions.
(§4) Added 10 μM L-685,458 to Plates 1 and 2, wells 2 and 4 for both cell types within 1 hour of transfection. Observed cells periodically.
(§5) Took pictures at 24, 46 hours after transfection, using AE lock to keep exposures constant between wells.
(§6) Changed media on cells at 24 hours past transfection. Kept 10 μM L-685,458 on cells in wells 2 and 4.
(§7) 100,000 cells from each well were trypsinized and placed in 0.1 mL phenol red-free media in a Costar 96-well dish and read using the fluorometer.

[5] = test system: APP processing; assay: APP/TAT fusion protein with LTR-EGFP reporter (pMM321), transient transfection in HEK293T cells (Example 2); settings: for # Bright / # Med / # Non / # Strong: count from photographs; for fluorometer reading: 293T, 10 uM 458, 100,000 cells
Description: as §1, §2, §3
Transfections for HEK293T cells: 9 μL Fugene/well. Combined with DNA in Optimem and incubated and added to cells according to manufacturer's instructions.
as §4, §5, §6
Took some photographs under fluorescent and white light (white light at low intensity) to reveal fluorescent and non-fluorescent cells. Conducted a subjective analysis of the photographs to see if the amount of inhibition by 10 μL-685,458 was in any way quantifiable. Counted bright (white in the middle), strong (blue middle), medium (green) and dim/non-fluorescent cells and determined the approximate fraction of each level of expression. Results follow:
as §7

[6] = 293T cells, 46 hours, 1 μg pMM321 + 0.1 μg APP/TAT vector + cmpd (10 μM)
[7] = 293T cells, 46 hours, 1 μg pMM321 + 1 μg APP/TAT vector + cmpd (10 μM), approximate fraction of cells
[8] = 293T cells, 46 hours, 1 μg pMM321 + 1 μg APP/TAT vector + cmpd (10 μM)

C[C@H](NC(=O)Cc1cc(F)cc(F)c1)C(=O)N[C@H]1N=C(c2ccccc2)c2ccccc2N(C)C1=O [L-875,532] was tested, and the “transactivation of the LTR by pUCd5TAT (control)” value [1] was “not affected by either inhibitor”, the “Fluor Units” value ([2]; pMM321 + APP-TAT-ct32, 10 μM inhibitor) was 8283 Fluor Units and the “decrease of fluorescence (fold)” value ([2]; pMM321 + APP/TAT vector, 10 μM inhibitor vs no inhibitor) was 2.5 ×. The “Fluor Units” value ([2]; pMM321 + pRBR186 (control), 10 μM inhibitor) was 2161 Fluor Units, the “Fluor Units” value ([2]; pMM321 alone (control), 10 μM inhibitor) was 3443 Fluor Units and the “fluorescence assessed by eye under a fluorescence microscope” value ([2]; ~20 hrs, 1 μg pMM321 + 1 μg APP/TAT vector, 10 μM inhibitor) was “Clear inhibition of fluorescence”.
With CC(C)C[C@H](NC(=O)[C@H](Cc1ccccc1)C[C@@H](O)[C@H](Cc1ccccc1)NC(=O)OC(C)(C)C)C(=O)N[C@@H](Cc1ccccc1)C(N)=O [L-685,458, {1S-Benzyl-4R-[1-(1S-carbamoyl-2-phenylethylcarbamoyl)-1S-3-methylbutylcarbamoyl]-2R-hydroxy-5-phenylpentyl}carbamic acid tert-butyl ester] the “Aβ in conditioned media” value [3] was “completely inhibited to background levels”, the fluorometer reading ([4]; H4, 0.1 ug LTRGFP, 0.1 ug APPtat) was 6957 and the fluorometer reading ([4]; H4, 0.1 ug LTRGFP, 1 ug APPTAT) was 10031. The fluorometer reading ([4]; H4, 1 ug LTRGFP, 0.1 ug APPtat) was 7136, the fluorometer reading ([4]; H4, 1 ug LTRGFP, 1 ug APPTAT) was 25307 and the bright green cells/field ([4]; H4 cells, 24 hours, 0.1 μg pMM321 + 1 μg APP/TAT vector, 10 μM L-685,458) was 3-5 cells/field. The “green (GFP) cells observed under the microscope” value ([4]; H4 cells, 24 hours, 1 ug pMM321 + 1 ug APP/TAT vector, 10 μM L-685,458) was “reduced compared with well #1”, the “inhibition of fluorescence (fluorometer)” value ([4]; H4 cells, any transfection conditions, 10 μM L-685,458) was “No inhibition of fluorescence was observed” and the “inhibition of GFP” value ([5]; 10 μM L-685,458, same wells as the Aβ analysis (293T and H4 cells)) was “substantial inhibition of GFP was not observed”. For the same compound, the “inhibition of fluorescence (fluorometer)” value ([5]; 293T cells, 0.1 μg APP/TAT vector + 0.1 μg pMM321, 10 μM L-685,458) was “Inhibition of fluorescence was also observed”, the “inhibition of fluorescence (fluorometer)” value ([5]; 293T cells, 1 μg APP/TAT vector + 1 μg pMM321, 10 μM L-685,458) was “reduced to background levels” and the “effect on numbers of fluorescing cells (Table 1, second run)” value ([5]; 293T cells, 1 μg pMM321 + 0.1 μg APP/TAT vector, with vs without cmpd) was “fewer bright and strong fluorescing cells as well as more non-fluorescent cells”. For the same compound, the “effect on numbers of fluorescing cells (Table 1, first run)” value ([5]; 293T cells, 1 μg pMM321 + 1 μg APP/TAT vector, with vs without cmpd) was “fewer strong and medium fluorescing cells as well as more non-fluorescent cells”, the “# Bright” value [5, 6] was 23 and the “# Med” value [5, 6] was 149. For the same compound, the “# Non” value [5, 6] was 194, the “# Strong” value [5, 6] was 32 and the “% Med” value [5, 7] was 11%. For the same compound, the “% Non” value [5, 7] was 88%, the “% Strong” value [5, 7] was 0.8% and the “# Bright” value [5, 8] was “none”. For the same compound, the “# Med” value [5, 8] was 66, the “# Non” value [5, 8] was 521 and the “# Strong” value [5, 8] was 5. For the same compound, the fluorometer reading ([5]; 0.1 ug LTRGFP, 0.1 ug APPtat) was 14790, the fluorometer reading ([5]; 0.1 ug LTRGFP, 1 ug APPTAT) was 10491 and the fluorometer reading ([5]; 1 ug LTRGFP, 0.1 ug APPtat) was 65535. The fluorometer reading ([5]; 1 ug LTRGFP, 1 ug APPTAT) was 14321, the “green (GFP) cells observed” value ([5]; HEK293T cells, 24 hours, 0.1 μg pMM321 + 0.1 μg APP/TAT vector, 10 μM L-685,458) was “Bright, medium, and dim green cells” and the “green (GFP) cells observed” value ([5]; HEK293T cells, 24 hours, 0.1 μg pMM321 + 1 μg APP/TAT vector, 10 μM L-685,458) was “Bright, medium, and dim green cells”. For the same compound, the “green (GFP) cells observed” value ([5]; HEK293T cells, 24 hours, 1 μg pMM321 + 0.1 μg APP/TAT vector, 10 μM L-685,458) was “Fewer bright green cells/field but intensity does not appear strongly diminished” and the “green (GFP) cells observed, of 15 cells” value ([5]; HEK293T cells, 24 hours, 1 μg pMM321 + 1 μg APP/TAT vector, 10 μM L-685,458) was 6 very dim, 5 dim, 1 medium, 3 bright.
